Converted amounts (≈) assume the structure as drawn.

Holding throughout (format): cell-based
The nature of one series: in vitro. Conditions: human, cem cells, CC50 (50% cytostatic concentration), Table 2B; CEM cell proliferation; averages of 2 to 3 independent experiments. The method, boiled down: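 In CEM cells, the cytostatic value is the compound concentration giving 50% inhibition of cell proliferation. Parallel work used HIV-1(IIIB) and culture-selected resistant strains Lys-138, 181-Cys, 188-His and 188-Leu.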

The next series deals with HIV-1/Lys-138. Briefly: Inhibition of HIV-1 induced syncytium formation in CEM cells, RT mutant 138-Lys. Conditions: Human immunodeficiency virus 1, CCRF-CEM, 96 h, Table 2B, day 4, averages of 2 to 3 independent experiments, read-out: Antiviral Activity of Comparative Compounds EC50, 138-Lys. The method, boiled down: (§1)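 CEM cells (≈300,000 cells/ml) were infected with about 100 CCID50 of HIV-1(IIIB) or an RT mutant strain and added to 5-fold serial dilutions of test compound. Inhibition of HIV-1-induced syncytium formation was scored microscopically on day 4 post infection.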

Another series concerns HIV-1/188-Leu. The series can be described thus: Inhibition of HIV-1 induced syncytium formation in CEM cells, RT mutant 188-Leu. Conditions: Human immunodeficiency virus 1, CCRF-CEM, 96 h, Table 2B, day 4, averages of 2 to 3 independent experiments, read-out: Antiviral Activity of Comparative Compounds EC50, 188-Leu. From the text:
(§2) CEM cells were obtained from the American Tissue Cell Culture Collection (Rockville, Md.). HIV-1(IIIB) was originally obtained from the culture supernatant of persistently HIV-1-infected H9 cells and was provided by R. C. Gallo and M. Popovic (National Cancer Institute, National Institutes of Health, Bethesda, Md.). […] 67: 5353-5359 (1993); HIV-1/Lys-138 ("Lys-138") was selected for resistance against TSAO-m^3T as described in Balzarini et al, Virology 192: 246-253 (1993) and Balzarini et al, Proc. Nat. Acad. Sci. USA 90: 6952-6956 (1993); HIV-1/181-Cys ("181-Cys") was selected for resistance against pyridinone L-697,661 as described in Balzarini et al, Virology 192: 246-253 (1993); and HIV-1/188-His ("188-His") was selected for resistance against HEPT as described in Balzarini et al, Mol. Pharmocol. 44: 694-701 (1993). 188-His was then further converted to HIV-1/188-Leu "188-Leu") upon further passage in cell culture in the absence of the HEPT.
(§3) CEM cells were suspended at ≈300,000 cells per ml of culture medium and infected with approximately 100 CCID50 (CCID50 being the 50% cell culture infective dose) of HIV-1(IIIB) or one of the HIV-1 RT mutant strains described above. Then 100 μl of the infected cell suspensions was added to 200 μl microtiter plate wells containing 100 μl of appropriate serial (5-fold) dilutions of the test compounds. The inhibitory effect of the test compounds on HIV-1 induced syncytium formation in CEM cells was examined microscopically on day 4 post infection.

The next series concerns HIV-1/103-Asn. Briefly: Inhibition of HIV-1 induced syncytium formation in CEM cells, RT mutant 103-Asn. Conditions: Human immunodeficiency virus 1, CCRF-CEM, 96 h, Table 2B, day 4, averages of 2 to 3 independent experiments, read-out: Antiviral Activity of Comparative Compounds EC50, 103-Asn.
From the text: as §2, §3

The test system of a further series is HIV-1/106-Ala. Briefly: Inhibition of HIV-1 induced syncytium formation in CEM cells, RT mutant 106-Ala. To be noted: Human immunodeficiency virus 1, CCRF-CEM, 96 h, Table 2B, day 4, averages of 2 to 3 independent experiments, read-out: Antiviral Activity of Comparative Compounds EC50, 106-Ala. The method in brief: as §1
In the next series the test system is HIV-1/100-Ile. Briefly: Inhibition of HIV-1 induced syncytium formation in CEM cells, RT mutant 100-Ile. Conditions: Human immunodeficiency virus 1, CCRF-CEM, 96 h, Table 2B, day 4, averages of 2 to 3 independent experiments, read-out: Antiviral Activity of Comparative Compounds EC50, 100-Ile. The method in brief: as §1
In another series the test system is HIV-1/181-Cys. The series can be described thus: Inhibition of HIV-1 induced syncytium formation in CEM cells, RT mutant 181-Cys. Conditions: Human immunodeficiency virus 1, CCRF-CEM, 96 h, Table 2B, day 4, averages of 2 to 3 independent experiments, read-out: Antiviral Activity of Comparative Compounds EC50, 181-Cys. The method, boiled down:
as §1

In a further series the test system is HIV-1(IIIB). Briefly: Inhibition of HIV-1 induced syncytium formation in CEM cells, wild type. Conditions: Human immunodeficiency virus 1, IIIB, CCRF-CEM, 96 h, Table 2B, WT = HIV-1(IIIB), day 4, averages of 2 to 3 independent experiments, read-out: Antiviral Activity of Comparative Compounds EC50, WT. The method, boiled down: as §1

Broadly, the CC50 is the concentration at which the toxic effect on the cells reaches its halfway point. A low value points to harm at low concentration. The EC50 is the concentration at which the effect is half-maximal. `CC=CCOc1cc(NC(=O)c2ccsc2C)ccc1Cl` [Compound 45] yielded a CC50 in “in vitro” of 87 µg/mL (≈ 270 µM). The EC50 in the series on HIV-1/Lys-138 was 0.65 µg/mL (≈ 2.02 µM); with HIV-1/188-Leu it was > 10 µg/mL; with HIV-1/103-Asn it was 0.95 µg/mL (≈ 2.95 µM); with HIV-1/106-Ala, 0.85 µg/mL (≈ 2.64 µM); with HIV-1/100-Ile it was 0.6 µg/mL (≈ 1.86 µM); in the series with HIV-1/181-Cys it was 0.5 µg/mL (≈ 1.55 µM). Further, in the series on HIV-1(IIIB), the EC50 worked out at 0.15 µg/mL (≈ 0.466 µM).

Regarding `Cc1occc1C(=S)Nc1ccc(Cl)c(SCC(=O)OC(C)(C)C)c1` [Compound 17], the CC50 in the series “in vitro” stood at 7 µg/mL (≈ 17.6 µM). The concentration for a half-maximal effect (EC50) in the series with HIV-1/Lys-138 is 0.18 µg/mL (≈ 0.452 µM); with HIV-1/188-Leu, ≥ 2 µg/mL; in the series with HIV-1/103-Asn it was 0.73 µg/mL (≈ 1.83 µM); in the series with HIV-1/106-Ala, 0.3 µg/mL (≈ 0.754 µM); in the series with HIV-1/100-Ile it was 0.49 µg/mL (≈ 1.23 µM); in the series on HIV-1/181-Cys it was 0.45 µg/mL (≈ 1.13 µM). In the series on HIV-1(IIIB), the EC50 was determined as 0.22 µg/mL (≈ 0.553 µM).

With `Cc1occc1C(=S)Nc1ccc(Cl)c(OC(=O)OC(C)C)c1` [Compound 46], in the series “in vitro”, the CC50 worked out at 25 µg/mL (≈ 70.7 µM). In addition, the EC50 in the series on HIV-1/Lys-138 is 0.6 µg/mL (≈ 1.7 µM); with HIV-1/188-Leu it was ≥ 2 µg/mL; in the series on HIV-1/103-Asn, 4 µg/mL (≈ 11.3 µM); in the series on HIV-1/106-Ala, 3 µg/mL (≈ 8.48 µM); in the series on HIV-1/100-Ile, 4.5 µg/mL (≈ 12.7 µM); with HIV-1/181-Cys, 5.5 µg/mL (≈ 15.5 µM). In addition, the EC50 in the series on HIV-1(IIIB) came to 0.37 µg/mL (≈ 1.05 µM).

In the series “in vitro”, `CSc1sccc1C(=O)Nc1ccc(Cl)c(C=NOC(C)(C)C)c1` [Compound 36] came in with a CC50 of 7.8 µg/mL (≈ 20.4 µM). Moreover, the concentration giving a half-maximal response (EC50) was 0.85 µg/mL (≈ 2.22 µM) with HIV-1/Lys-138; > 2 µg/mL in the series with HIV-1/188-Leu; 1.2 µg/mL (≈ 3.13 µM) in the series with HIV-1/103-Asn; 0.85 µg/mL (≈ 2.22 µM) in the series on HIV-1/106-Ala; 1.23 µg/mL (≈ 3.21 µM) with HIV-1/100-Ile; 1.6 µg/mL (≈ 4.18 µM) in the series with HIV-1/181-Cys. In addition, the EC50 in the series on HIV-1(IIIB) came out at 0.18 µg/mL (≈ 0.47 µM).

With `Cc1sccc1C(=S)Nc1ccc(Cl)c(C(=O)OC(C)C)c1` [Compound 16], in the series “in vitro”, the CC50 was determined as 5.9 µg/mL (≈ 16.7 µM). Moreover, the EC50 was 0.03 µg/mL (≈ 0.0848 µM) in the series on HIV-1/Lys-138; > 2 µg/mL with HIV-1/188-Leu; 0.33 µg/mL (≈ 0.932 µM) in the series with HIV-1/103-Asn; 0.077 µg/mL (≈ 0.218 µM) with HIV-1/106-Ala; 0.15 µg/mL (≈ 0.424 µM) in the series with HIV-1/100-Ile; 0.1 µg/mL (≈ 0.283 µM) in the series with HIV-1/181-Cys. For the same compound, in the series with HIV-1(IIIB), the EC50 was 0.0041 µg/mL (≈ 0.0116 µM).

On to `CC1=C(C(=O)Nc2ccc(Cl)c(C(=O)OC(C(C)C)C(C)C)c2)SCCO1` [Compound 22], for which half-maximal cytotoxicity in “in vitro” (CC50) was put at 5.8 µg/mL (≈ 14.1 µM). For the same compound, the EC50 is 0.55 µg/mL (≈ 1.34 µM) with HIV-1/Lys-138; > 2 µg/mL with HIV-1/188-Leu; 0.65 µg/mL (≈ 1.58 µM) in the series on HIV-1/103-Asn; 0.26 µg/mL (≈ 0.631 µM) with HIV-1/106-Ala; 0.48 µg/mL (≈ 1.17 µM) in the series with HIV-1/100-Ile; 0.18 µg/mL (≈ 0.437 µM) with HIV-1/181-Cys. In addition, in the series with HIV-1(IIIB), the EC50 came to 0.08 µg/mL (≈ 0.194 µM).

Turning to `CC=CCOc1cc(NC(=S)c2ccsc2C)ccc1Cl` [Compound 1], in the series “in vitro”, the CC50 amounted to 5.9 µg/mL (≈ 17.5 µM). In addition, the EC50 in the series with HIV-1/Lys-138 came out at 0.018 µg/mL (≈ 0.0533 µM); in the series on HIV-1/188-Leu, 0.65 µg/mL (≈ 1.92 µM); in the series with HIV-1/103-Asn, 0.048 µg/mL (≈ 0.142 µM); with HIV-1/106-Ala, 0.023 µg/mL (≈ 0.0681 µM); in the series on HIV-1/100-Ile it was 0.048 µg/mL (≈ 0.142 µM); in the series on HIV-1/181-Cys, 0.03 µg/mL (≈ 0.0888 µM). The EC50 in the series with HIV-1(IIIB) was 0.0055 µg/mL (≈ 0.0163 µM).

As for `Cc1sccc1C(=S)Nc1ccc(Cl)c(SCC(=O)OC(C)(C)C)c1` [Compound 20], the 50% cytotoxic concentration (CC50) in the series “in vitro” was found to be 5.4 µg/mL (≈ 13 µM). Besides, the EC50 is 0.43 µg/mL (≈ 1.04 µM) in the series on HIV-1/Lys-138; > 2 µg/mL in the series on HIV-1/188-Leu; 0.44 µg/mL (≈ 1.06 µM) in the series on HIV-1/103-Asn; 0.15 µg/mL (≈ 0.362 µM) in the series on HIV-1/106-Ala; 0.34 µg/mL (≈ 0.821 µM) in the series on HIV-1/100-Ile; 0.14 µg/mL (≈ 0.338 µM) in the series on HIV-1/181-Cys. Besides, the EC50 in the series on HIV-1(IIIB) was found to be 0.13 µg/mL (≈ 0.314 µM).

Compound `Cc1sccc1C(=O)Nc1ccc(Cl)c(OCC2CCCC2)c1` [Compound 42] had a CC50 in “in vitro” of 5 µg/mL (≈ 14.3 µM). Moreover, the EC50 in the series with HIV-1/Lys-138 was ≥ 2 µg/mL; in the series on HIV-1/188-Leu, > 2 µg/mL; in the series with HIV-1/103-Asn, ≥ 2 µg/mL; in the series with HIV-1/106-Ala, ≥ 2 µg/mL; with HIV-1/100-Ile it was ≥ 2 µg/mL; with HIV-1/181-Cys, ≥ 2 µg/mL. Besides, the EC50 in the series on HIV-1(IIIB) stood at 0.36 µg/mL (≈ 1.03 µM).

For the origin of these results see patent US5696151A, “Compounds useful for the inhibition of the replication of HIV-1 and HIV-1 mutants” (priority 1995, dated 1997).
